One compound from patent US9872922B2, “Anti-EFNA4 antibody-drug conjugates” (PFIZER, INC., priority 2013, dated 2018) can be followed below.

Assay [1] deals with Ovarian-39 (OV39) ovarian cancer PDX. Put plainly: In vivo efficacy, OV39 ovarian cancer PDX. Also on record: species or system NOD/SCID mice (human tumor PDX). As to conditions: 5 mpk, once a week for 2 cycles; OV39.
The test system of assay [2] is Ovarian-63 (OV63) ovarian cancer PDX. Put plainly: In vivo efficacy, OV63 ovarian cancer PDX. As to conditions: for mean tumor volume: 5.0 mg/kg. Also on record: species or system NOD/SCID mice (human tumor PDX); mean tumor volume: unit not given beside the values.
Assay [3] concerns Ovarian-44 (OV44) ovarian cancer PDX. Put plainly: In vivo efficacy, OV44 ovarian cancer PDX. Details: species or system NOD/SCID mice (human tumor PDX). As to conditions: 5 mpk, once a week for 2 cycles.

For `N.N.[Cl][Pt][Cl]` [Cisplatin, cisplatin, reference compound], the “Regression (TTP, Days)” value in assay [1] was “Regression (28) Days”; in assay [3], “Regression (60) Days”. For the same compound, the mean tumor volume was found to be 153 ± 22 in assay [2] (Day 0); 146 ± 27 in assay [2] (Day 5); 198 ± 29 in assay [2] (Day 18); 205 ± 36 in assay [2] (Day 25); 238 ± 49 in assay [2] (Day 32); 221 ± 40 in assay [2] (Day 39). In addition, the mean tumor volume was 243 ± 42 in assay [2] (Day 47), 265 ± 63 in assay [2] (Day 53), 296 ± 80 in assay [2] (Day 60) and 265 ± 82 in assay [2] (Day 67). In addition, the “% TGI” value in assay [2] (5 mpk, once a week for 2 cycles, OV63 PDX) came to 35% TGI.
